Results on 36 compounds are retold here after PubChem BioAssay AID743499 (The Scripps Research Institute Molecular Screening Center, 2014).

The structures appear in SMILES notation. Active and inactive are the calls of the source. The rule behind the calls is not given here.

For this assay, the system named is Crimean-Congo hemorrhagic fever virus L protein ovarian tumor domain protease (vOTU). In words: PubChem AID 743499. As to conditions: purified CCHFV vOTU, di-Ub K63 fluorescence cleavage, hits give high values.

The term inhibition denotes the relative decrease from the control value, in per cent. Regarding `Cc1c(Cl)cnc(NC(=O)COC(=O)c2ccc([N+](=O)[O-])s2)c1Cl`, the inhibition (at 20.44 µM) is 76.2%. For `Cn1nc(-c2ccccn2)nc2c(=O)n(C)c(=O)nc1-2`, the inhibition (at 1.16 µM) was 75.7%. In the case of `Cc1ccc(N2C(=O)[C@@H]3[C@H](C2=O)C2c4ccccc4C=CN2[C@@H]3C(=O)c2ccco2)cc1` (stereo partly specified), the inhibition (at 5.2 µM) is 31.4%. For `CC1CCCC(NC(=O)COC(=O)c2ccc([N+](=O)[O-])s2)C1C` (stereo unspecified), where the note is “at 31.32 µM”, the inhibition is 43.6%.

With `COc1ccc2noc3c2c1C(=O)c1ccccc1-3`, for the setting “at 6.28 µM”, the inhibition was 27.6%. Regarding `Cc1ccccc1-c1cc2c(nn1)-c1ccccc1C2=O`, the inhibition (at 4.5 µM) was 14.8% (inactive). As for `O=C(COC(=O)c1ccc([N+](=O)[O-])s1)Nc1ccc(F)cc1`, the inhibition (at 26.34 µM) was 99.5%. For `CC1COCC(C)N1C1=C(Cl)C(=O)c2ccccc2C1=O` (stereo unspecified), the inhibition (at 14.67 µM) was 24.6%.

In the case of `COC1=C(N)C(=O)c2nc(C)ccc2C1=O`, under “at 4.98 µM”, the inhibition is 53.1%. With `CC1(C)C=C2C(=NN(c3ccccc3)C(N)=C2C#N)CO1`, for the setting “at 23.49 µM”, the inhibition was 76.2%. Consider `NS(=O)(=O)c1ccc(NC(=O)COC(=O)c2ccc([N+](=O)[O-])s2)cc1`, for which, where the note is “at 29.01 µM”, the inhibition is 94.1%. With `O=C(COC(=O)c1ccc([N+](=O)[O-])s1)NCc1ccc(F)cc1`, the inhibition (at 40.58 µM) is 70%. Take `CCn1nc(/C=C/c2ccccc2)nc2c(=O)n(C)c(=O)nc1-2`: the inhibition (at 0.49 µM) was 96.1%. Turning to `O=c1[nH]c(Nc2ccccc2)cc2cc(Br)ccc12`, the inhibition (at 1.45 µM) is 22%. In the case of `O=C(OCc1nnc(-c2ccccc2)o1)c1ccc([N+](=O)[O-])s1`, where the note is “at 26.04 µM”, the inhibition is 99.5%.

Consider `O=C1Cc2ccccc2C(=O)N1Cc1ccccc1`, for which the inhibition (at 1.31 µM) is 37.1%. Take `COc1cc(NC(=O)COC(=O)c2ccc([N+](=O)[O-])s2)cc(OC)c1OC`: where the note is “at 21.72 µM”, the inhibition was 82.2%. As for `Cc1ccc2c(c1C)-c1c(ccc(C)c1C)C(=O)C2=O`, the inhibition (at 18.9 µM) was 55.7%. With `O=C(COC(=O)c1ccc([N+](=O)[O-])s1)Nc1ncc(C(F)(F)F)cc1Cl`, the inhibition (at 27.79 µM) was 68.2%. For the compound `O=C(/C=C/c1ccc(O)cc1)c1ccc(NC2=C(N3CCCCC3)C(=O)c3ccccc3C2=O)cc1`, the inhibition (at 10.17 µM) was 38.1%. In the case of `CN(C1=C(NC(=O)c2ccccc2)C(=O)c2ccccc2C1=O)C1CCS(=O)(=O)C1` (stereo unspecified), the inhibition (at 19.18 µM) is 27.5%. For `NC1=C(Cl)C(=O)c2ccc(S(N)(=O)=O)cc2C1=O`, the inhibition (at 0.39 µM) is 50.5%.

On to `Nc1cc2c(cc1Br)[nH]c(=O)c1ccccc12`, for which, under “at 4.57 µM”, the inhibition is 4.29% (inactive). For `Cc1ccc(NC2=CC(=O)C(=O)c3ccccc32)cc1`, the inhibition (at 12.24 µM) is 103%. In the case of `O=C(c1ccco1)[C@@H]1[C@@H]2C(=O)N(c3ccc(Br)cc3)C(=O)[C@@H]2C2c3ccccc3C=CN21` (stereo partly specified), the inhibition (at 11.01 µM) is 59.9%. With `O=C1Cc2ccccc2C(=O)N1`, the inhibition (at 0.6 µM) is 39.2%.

Turning to `O=C1Cc2ccccc2C(=O)N1CCc1ccccc1`, the inhibition (at 3.02 µM) was 11.1% (inactive). Consider `CCOC(=O)N=Nc1c2ccccc2c2nc3no[nH]c3nc12`, for which the inhibition (at 7.75 µM) is 24.5%. For the compound `COc1cc(Br)c(C(=O)c2nccc3cc(OC)c(OC)cc23)cc1OC`, for the setting “at 1.13 µM”, the inhibition is 21%.

As to `O=C(NC1=CC(=O)c2ccccc2C1=O)c1ccccc1`, the inhibition (at 12.37 µM) was 33.4%. Regarding `NS(=O)(=O)c1ccc(NC2=CC(=O)C(=O)c3ccccc32)cc1`, for the setting “at 11.51 µM”, the inhibition was 44.4%. On to `O=C(NC1=C(NC2CCS(=O)(=O)C2)C(=O)c2ccccc2C1=O)c1ccccc1` (stereo unspecified), for which, where the note is “at 14.2 µM”, the inhibition is 43.9%. As for `CCc1cc[n+](C2=C(NS(=O)(=O)c3cccs3)C(=O)c3ccccc3C2=O)cc1`, for the setting “at 14.16 µM”, the inhibition was 50.9%.

On to `COC(CNC(=O)c1ccc2c3c(onc13)-c1ccccc1C2=O)OC`, for which the inhibition (at 24.19 µM) is 46%. Regarding `COc1ccccc1NC(=O)COC(=O)c1ccc([N+](=O)[O-])s1`, under “at 35.07 µM”, the inhibition was 84.1%. `O=C1C=C(Nc2ccccc2)c2ccccc2C1=O`: under “at 15.55 µM”, the inhibition was 89.1%.
